Laboratory results published in ChEMBL document CHEMBL1201862, “PubChem BioAssay data set” (2004).
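96-well plates; 48 h exposure; 5 concentrations. Endpoints by linear interpolation between flanking doses. Not reached: highest tested concentration assigned. GI50: concentration for 50% inhibition of growth.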 Activity calls are given as the source filed them. Rule as the data show it: active = GI50 up to about 1.1 µM and inactive = higher.

Tests used:
Experiment in all cases: NCI tumour cell line growth inhibition, 48 h
HCC 2998 = test system: HCC 2998
HOP-62 = test system: HOP-62
HCT-116 = test system: HCT-116
A498 = test system: A498
SW-620 = test system: SW-620
CAKI-1 = test system: CAKI-1
NCI-H460 = test system: NCI-H460
Malme-3M = test system: Malme-3M
TK-10 = test system: TK-10
RXF 393 = test system: RXF 393
786-0 = test system: 786-0
HL-60 = test system: HL-60
SNB-19 = test system: SNB-19
UACC-257 = test system: UACC-257
SF-539 = test system: SF-539
ACHN = test system: ACHN
DU-145 = test system: DU-145
Hs-578T = test system: Hs-578T
MDA-N = test system: MDA-N

SMILES	GI50 (HCC 2998)	GI50 (HOP-62)	GI50 (HCT-116)	GI50 (A498)	GI50 (SW-620)	GI50 (CAKI-1)	GI50 (NCI-H460)	GI50 (Malme-3M)	GI50 (TK-10)	GI50 (RXF 393)	GI50 (786-0)	GI50 (HL-60)	GI50 (SNB-19)	GI50 (UACC-257)	GI50 (SF-539)	GI50 (ACHN)	GI50 (DU-145)	GI50 (Hs-578T)	GI50 (MDA-N)
O=S(=O)(O)c1cc(O)c2c(O)c(/N=N/c3ccc(/C=C/c4ccc(/N=N/c5c(S(=O)(=O)O)cc6cc(S(=O)(=O)O)cc(O)c6c5O)cc4S(=O)(=O)O)c(S(=O)(=O)O)c3)c(S(=O)(=O)O)cc2c1	> 100 µM (inactive)	> 100 µM (inactive)	> 100 µM (inactive)	> 100 µM (inactive)	> 100 µM (inactive)	> 100 µM (inactive)	> 100 µM (inactive)	> 100 µM (inactive)	> 100 µM (inactive)	> 100 µM (inactive)	> 100 µM (inactive)	> 100 µM (inactive)	> 100 µM (inactive)	> 100 µM (inactive)	> 100 µM (inactive)	> 100 µM (inactive)	–	–	–
COC(=O)c1c[nH]cc1CCCCc1c[nH]cc1C(=O)OC	> 100 µM (inactive)	> 100 µM (inactive)	> 100 µM (inactive)	> 100 µM (inactive)	> 100 µM (inactive)	> 100 µM (inactive)	> 100 µM (inactive)	> 100 µM (inactive)	> 100 µM (inactive)	> 100 µM (inactive)	89.1 µM (inactive)	73.3 µM (inactive)	> 100 µM (inactive)	> 100 µM (inactive)	> 100 µM (inactive)	> 100 µM (inactive)	–	–	–
Cc1ccc(/C(Cl)=C/C=C(C#N)C#N)cc1	–	1.98 µM (inactive)	1.83 µM (inactive)	–	1.91 µM (inactive)	3.64 µM (inactive)	3.8 µM (inactive)	3.85 µM (inactive)	2.25 µM (inactive)	2.61 µM (inactive)	1.88 µM (inactive)	2 µM (inactive)	7.62 µM (inactive)	2.52 µM (inactive)	2.64 µM (inactive)	2.45 µM (inactive)	11.3 µM (inactive)	2.16 µM (inactive)	–
COC(=O)/C=C/c1ccc2c(c1)CCC2	> 100 µM (inactive)	> 100 µM (inactive)	22.3 µM (inactive)	27.2 µM (inactive)	5.13 µM (inactive)	17.4 µM (inactive)	> 100 µM (inactive)	66.5 µM (inactive)	> 100 µM (inactive)	21 µM (inactive)	39.4 µM (inactive)	27.5 µM (inactive)	48.5 µM (inactive)	54 µM (inactive)	72.8 µM (inactive)	23.7 µM (inactive)	43.3 µM (inactive)	> 100 µM (inactive)	> 100 µM (inactive)
CC1=C(C)CC2(C=C(C(C)(C)C)C(=O)C(C(C)(C)C)=C2)SC1	–	19.3 µM (inactive)	28.4 µM (inactive)	17.5 µM (inactive)	18.2 µM (inactive)	21.5 µM (inactive)	27 µM (inactive)	14.2 µM (inactive)	18.6 µM (inactive)	18.5 µM (inactive)	17.9 µM (inactive)	18.3 µM (inactive)	17.3 µM (inactive)	26.6 µM (inactive)	18.3 µM (inactive)	–	39.3 µM (inactive)	16.9 µM (inactive)	27.2 µM (inactive)
C/C(=N\Nc1nc2ccccc2[nH]1)c1ccncn1	18.5 µM (inactive)	0.0951 µM (active)	0.113 µM (active)	0.237 µM (active)	0.134 µM (active)	0.123 µM (active)	0.0914 µM (active)	0.138 µM (active)	3.43 µM (inactive)	0.413 µM (active)	0.0693 µM (active)	0.0183 µM (active)	0.246 µM (active)	1.41 µM (inactive)	0.0394 µM (active)	0.0441 µM (active)	0.0843 µM (active)	80 µM (inactive)	0.698 µM (active)
CCOC(=O)C1N(S(=O)(=O)c2ccc(C)cc2)CCC12C(c1ccc(OC)cc1)NC1CCCCC12 (stereo not given)	> 100 µM (inactive)	98.6 µM (inactive)	> 100 µM (inactive)	> 100 µM (inactive)	> 100 µM (inactive)	> 100 µM (inactive)	> 100 µM (inactive)	67.3 µM (inactive)	> 100 µM (inactive)	44.4 µM (inactive)	68.7 µM (inactive)	> 100 µM (inactive)	> 100 µM (inactive)	> 100 µM (inactive)	55.7 µM (inactive)	> 100 µM (inactive)	–	–	–
O=C(Oc1ccc(C(c2c(O)c3ccccc3oc2=O)c2c(O)c3ccccc3oc2=O)cc1)c1ccc(C(=O)c2ccccc2)cc1	18.8 µM (inactive)	24.1 µM (inactive)	34.2 µM (inactive)	–	32.7 µM (inactive)	28 µM (inactive)	22.1 µM (inactive)	–	17.9 µM (inactive)	27.3 µM (inactive)	33 µM (inactive)	–	17.4 µM (inactive)	17.2 µM (inactive)	17.3 µM (inactive)	19.3 µM (inactive)	29.1 µM (inactive)	37.7 µM (inactive)	36.1 µM (inactive)
